From patent US20130273557A1 (priority 2010, published 2013)

Key:
complex V (F1FO ATPase) = complex V (F1FO ATPase) (Rattus norvegicus, UniProt P19511+Q06647); assay: ATP hydrolysis in SMVs, luciferin-luciferase assay; type: biochemical; set-up: from tissue; host or cells: rat brain mitochondria, lubrol-insoluble submitochondrial vesicles (SMVs); conditions: in these assays (NADH and luciferase)
Source text: 3 wells were used for each condition, repeated at least 3× on different SMV isolations.

[1] = test system: digitonin-treated cortical neurons; assay: ATP production following ADP pulse in digitonin-treated cortical neurons; type: cell-based, rat; conditions: dexpramipexole 30 μM
[2] = test system: leak conductance of urea-treated SMVs; assay: Patch clamp recordings of urea-treated SMVs (F1 removed); type: biochemical, rat
Description: F1 subunits were removed from SMVs by adapting previously-established methods. 60 mg SMV's/1 mL IB was treated with 1 mL of […] for 5 min. on ice, then centrifuged at 21000×g for 10 min. The pellet was washed 3× in IB (centrifugation at 21000×g for 10 min) and stored in IB.
Giga-ohm seals were formed on SMVs using pipettes and solutions as above. Peak membrane conductance was measured as described above.

C2C12 cells [3] = type: cell-based, mouse
Description: (§1) Data are presented as a percentage of the vehicle-treated control ±SEM (n=10 wells at each concentration). […] Experiments commenced 18 hr. after addition of drug. […] Data are presented as a percentage of the vehicle-treated control±SEM (n=14-17 wells for each group).
(§2) The C2C12 mouse myoblast cell line (ATCC, Manasses, Va.) was cultured in Dulbecco's Modified Eagle Medium (DMEM; Gibco®; Carlsbad, Calif.) supplemented with 10% fetal bovine serum (FBS), 2 mM GlutaMax® and penicillin/streptomycin. Cells were maintained in 10% CO2 humidified at 37° C.
(§3) Cellular viability was measured using CellTiter-Blue® (Promega Corp., Madison, Wis.) in black-walled optical imaging multiwell plates, and cellular ATP was measured using the CellTiter-Glo® (Promega Corp., Madison, Wis.) luminescence assay in opaque-walled multiwell plates according to the manufacturer's protocol.

C2C12 cells [4] = test system: C2C12 cells
Description: as §1, §2, §3

[5] = target: T1, intermediate- and large-conductance channel activity of PSI-mitochondria (Rattus norvegicus, UniProt P19511+Q06647); assay: Patch clamp recording of brain-derived PSI-mitochondria; type: biochemical; conditions: subcortex mitochondria vs control animals
T1 sequence (P19511 43-256): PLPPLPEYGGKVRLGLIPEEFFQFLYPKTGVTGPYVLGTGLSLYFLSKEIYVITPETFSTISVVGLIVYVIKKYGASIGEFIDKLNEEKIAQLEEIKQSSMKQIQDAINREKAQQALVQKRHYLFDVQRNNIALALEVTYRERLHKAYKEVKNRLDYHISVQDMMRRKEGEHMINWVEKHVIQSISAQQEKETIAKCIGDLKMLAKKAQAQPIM
T1 sequence (Q06647 24-213): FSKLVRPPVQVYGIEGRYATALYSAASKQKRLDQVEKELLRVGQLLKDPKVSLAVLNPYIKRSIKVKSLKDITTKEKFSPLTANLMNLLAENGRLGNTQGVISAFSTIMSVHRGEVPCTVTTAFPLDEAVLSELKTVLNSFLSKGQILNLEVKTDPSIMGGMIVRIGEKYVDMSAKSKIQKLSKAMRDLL
Description: Isolation of Brain-derived Mitochondria. Standard techniques were adapted for isolating brain-derived mitochondria. Mitochondria were stored in isolation buffer (IB) at −80° C. For PSI-mitochondria, male Sprague-Dawley rats (6 wo, ˜200 gm, 3-6 rats/group/condition, at least 2 different preparations/experimental paradigm) were injected with the ubiquitin proteasome inhibitor Z-Ile-Glu(OtBu)-Ala-Leu-al (PSI; Peptides International Inc, Kentucky, USA; s.c. every other day for 1 or 2 weeks; 6.0 mg/kg PSI in DMSO, or with DMSO, 200 μL/rat), and mitochondria isolated and stored as above.
Reagents were rapidly perfused into the recording chamber.

[6] = test system: SH-SY5Y neuroblastoma cells; assay: PSI-induced cell death in SH-SY5Y cells (CellTiter-Blue); conditions: 24 hr exposure to PSI at 150 or 650 nM
Description: Data shown represent mean±SEM. […] Bar graphs represent normalized mean±SEM. Cell viability was measured by CellTiter-Blue®; n=41-98 wells/condition.
Undifferentiated SH-SY5Y human neuroblastoma cells (ATCC, Manasses, Va.) were maintained in humidified 5% CO2 in 1:1 Ham's F12 nutrient mixture with Glutamax® and Minimal Essential Medium with L-glutamine (MEM-Alpha), 10% FBS, and 1% penicillin/streptomycin (Gibco® Invitrogen Corp., Carlsbad, Calif.).
as §3

C2C12 myoblasts = assay: OCR and ECAR in C2C12 myoblasts (Seahorse); type: cell-based, mouse; conditions: dexpramipexole 30 μM or PSI 30 nM alone, 18 hr
Description: as §2
OCR and ECAR were measured with a Seahorse® XF24 Flux Analyzer (Seahorse Bioscience, Billerica, Mass.). For PSI experiments on C2C12 cells, basal values were assessed in non-buffered DMEM Assay Medium without glucose, glutamine or pyruvate, and supplemented with 25 mM glucose, 6 mM Glutamax®, and 1 mM sodium pyruvate. […] Succinate and ADP stocks were diluted to 10× concentrations in pre-warmed XF MAS buffer, pH 7.2. Using a Plate Prep Station (Seahorse Bioscience, Billerica, Mass.), cells were washed with 1 mL buffer and were brought to 607 μL with buffer. […] Raw basal OCR and ECAR values were normalized as a percent of the mean control value for each individual experiment. Normalized data from experiments were expressed as mean±SEM.

[7] = test system: models of cell death and NDDs; conditions: non-dopaminergic mechanism; cited from earlier work
[8] = test system: calcium (Ca2+)-induced membrane currents in rat liver mitoplasts; conditions: cited from earlier work

For CC[C@H]1/C=C/C=C/C[C@@H](C)[C@H](O)[C@@](C)(O)C(=O)[C@@H](C)[C@H](O)[C@@H](C)C(=O)[C@@H](C)[C@H](O)[C@@H](C)/C=C/C(=O)O[C@@H]2[C@H](C)[C@H](CC1)O[C@]1(CC[C@H](C)[C@H](C[C@@H](C)O)O1)[C@H]2C [oligomycin, reference compound], the ATP hydrolysis (complex V (F1FO ATPase)) was “effectively inhibited ATP hydrolysis”.

With antimycin A [reference compound] the “initial slope of ATP synthesis following an ADP pulse” value [1] was “significantly reduced” and the “maximal ATP levels” value [1] was “significantly reduced”.

In the case of Nc1ncnc2c1ncn2[C@@H]1O[C@H](COP(=O)(O)OP(=O)(O)OP(=O)(O)O)[C@@H](O)[C@H]1O [ATP, adenosine triphosphate, reference compound], the “leak conductance after removal of F1” value [2] is reported as “still very effectively decreased the leak conductance”.

For “Z-Ile-Glu(OtBu)-Ala-Leu-H [PSI, reference compound]”, the ATP levels (C2C12 cells [3]) was “neither ATP levels nor cell viability (FIG. 5b) were significantly affected”, the “concentrations reducing cellular viability” value (C2C12 cells [4]; 18 hr exposure) was > 60 nM and the cell viability (C2C12 cells [4]; dexpramipexole 30 μM or PSI 30 nM, 18 hr, relative to control) was “neither ATP levels nor cell viability (FIG. 5b) were significantly affected”. For the same compound, the “intermediate- and large-conductance mitochondrial ion channel activity after repeated pre-treatment of rats” value [5] was “significant increase”, the cell viability [6] was “significant decreases in cell viability” and the ECAR (C2C12 myoblasts) was “very significant increase in ECAR”. The OCR (C2C12 myoblasts) was “did not display a significant change in OCR”.

In the case of CCCN[C@H]1CCc2nc(N)sc2C1 [pramipexole, (6S)-4,5,6,7-tetrahydro-N6-propyl-2,6-benzothiazole-diamine, reference compound], the protective concentrations [7] is listed as ≥ 10 µM and the “Ca2+-induced membrane currents” value [8] is listed as “inhibit”.
